Like-named read-outs stand apart in the source and are kept apart here.
Tests used:
[1] = test system: mice; test: Acetic acid-induced writhing; assay type: in vivo, Swiss Webster mice
[2] = test system: Fos protein; test: Formalin-induced spinal cord Fos protein expression; assay type: in vivo, Sprague-Dawley rats
[3] = test system: FAAH
[4] = Temporal tissue distribution of URB937 in liver, brain and serum; assay type: in vivo, Swiss Webster mice; conditions: 1 mg-kg^−1, i.p., mice
[5] = biological target: T1, FAAH (Mus musculus, UniProt O08914); assay type: in vivo, Swiss Webster mice
T1 sequence (O08914 1-579): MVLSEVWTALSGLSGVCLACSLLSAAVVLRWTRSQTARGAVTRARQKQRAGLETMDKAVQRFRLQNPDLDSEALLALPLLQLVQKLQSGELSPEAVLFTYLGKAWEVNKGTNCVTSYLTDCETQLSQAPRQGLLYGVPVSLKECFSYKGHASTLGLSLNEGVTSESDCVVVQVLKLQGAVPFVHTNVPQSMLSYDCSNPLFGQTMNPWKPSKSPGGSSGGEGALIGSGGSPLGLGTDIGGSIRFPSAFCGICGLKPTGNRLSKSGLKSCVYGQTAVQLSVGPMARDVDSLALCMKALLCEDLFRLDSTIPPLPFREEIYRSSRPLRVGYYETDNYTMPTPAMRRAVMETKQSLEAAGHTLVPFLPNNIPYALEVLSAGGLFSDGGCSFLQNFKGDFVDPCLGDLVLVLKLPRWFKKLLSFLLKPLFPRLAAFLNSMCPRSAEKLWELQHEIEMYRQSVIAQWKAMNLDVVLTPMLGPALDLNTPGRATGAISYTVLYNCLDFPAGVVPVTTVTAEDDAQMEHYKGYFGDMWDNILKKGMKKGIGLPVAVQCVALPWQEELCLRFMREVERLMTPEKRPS

[6] = test system: human epithelial TC7 cells; test: Permeability and efflux ratio through polarized TC7 monolayers; assay type: in vitro ADME; conditions: mean of 2 independent experiments
[7] = Drug distribution coefficient n-octanol / buffer pH 7.4; assay type: physicochemical; conditions: n-octanol / aqueous buffer pH 7.4, 25±1°C, mean±s.e.m, n = 3
[8] = ex vivo 1 h after injection, 1 mg-kg^−1 i.p., Swiss Webster mice, n = 3
[9] = s.c., mice, 1 h after injection

## COc1ccc2c(c1)c(CC(=O)O)c(C)n2C(=O)c1ccc(Cl)cc1 [indomethacin]
[1]; 1 mg-kg^−1, s.c., 1 h before test
  Effect on acetic acid-induced writhing relative to URB937: comparable in efficacy

## COc1ccc(C(=O)c2c(C)n(CCN3CCOCC3)c3cc(I)ccc23)cc1 [AM630]
[1]; antagonist 1 mg-kg^−1, s.c., with URB937 1 mg-kg^−1 s.c.
  Effect of antagonist on the antinociceptive effect of URB937 (writhing): ineffective

## Cc1c(C(=O)NN2CCCCC2)nn(-c2ccc(Cl)cc2Cl)c1-c1ccc(Cl)cc1 [rimonabant]
[2]; 2 mg-kg^−1, i.p., rats
  Effect on Fos levels when administered without URB937: did not significantly alter Fos levels
[2]; rimonabant 2 mg-kg^−1, i.p., with URB937
  Effect of antagonist on URB937 suppression of Fos expression: prevented

## NC(=O)c1cccc(-c2cccc(OC(=O)NC3CCCCC3)c2)c1 [Compound 1a, cyclohexylcarbamic acid 3′-carbamoylbiphenyl-3-yl ester, reference compound]
[3]; in vivo, ip
  Effect on brain FAAH activity: markedly reduced

## NC(=O)c1cccc(-c2cc(OC(=O)NC3CCCCC3)ccc2O)c1 [Compound 1b]
[4]
  Distribution in blood and liver after systemic administration: distributed rapidly in blood and liver
  Presence in brain tissue after systemic administration: undetectable
[3]; 25 mg-kg^−1, i.p.
  Effect on brain FAAH activity: no effect
[5]; Supplementary Figure 1
  Time course of peripheral FAAH inhibition in vivo: rapidly and lastingly
[5]; [8]
  FAAH Inhibition in brain: −3.0 ± 8.0%
  FAAH Inhibition in liver: 91.7 ± 0.7%
[5]; [9]
  ED50 for FAAH inhibition in brain: 40 mg/kg
  ED50 for FAAH inhibition in liver: 0.2 mg/kg
[6]
  % recovery A–B: 83%
  % recovery B-A: 95%
  permeability B-A: 37.1 ×10⁻⁶ cm/s
[7]
  distribution coefficient, LogDoct,pH7.4: 3.03±0.01
